Reference: BigSolDB 2.1

Question: For CC1(C)CC(NCCCCCCNC2CC(C)(C)NC(C)(C)C2)CC(C)(C)N1, which solubility (mole fraction) (in acetone, 273.15 K) is on record?
Answer: 0.00859

Question: And the solubility (mole fraction) (in acetone, 278.15 K)?
Answer: 0.013

Question: What about the solubility (mole fraction) (in acetone, 283.15 K) of the same compound?
Answer: 0.0191

Question: And the solubility (mole fraction) (in acetone, 288.15 K)?
Answer: 0.029

Question: And the solubility (mole fraction) (in acetone, 293.15 K)?
Answer: 0.0467

Question: And the solubility (mole fraction) (in acetone, 298.15 K)?
Answer: 0.0737

Question: What about the solubility (mole fraction) (in acetone, 303.15 K) of the same compound?
Answer: 0.117

Question: What about the solubility (mole fraction) (in acetonitrile, 273.15 K) of the same compound?
Answer: 0.00115

Question: And the solubility (mole fraction) (in acetonitrile, 278.15 K)?
Answer: 0.00183

Question: And the solubility (mole fraction) (in acetonitrile, 283.15 K)?
Answer: 0.00233

Question: And the solubility (mole fraction) (in acetonitrile, 288.15 K)?
Answer: 0.00371

Question: And the solubility (mole fraction) (in acetonitrile, 293.15 K)?
Answer: 0.00537

Question: What about the solubility (mole fraction) (in acetonitrile, 298.15 K) of the same compound?
Answer: 0.00821

Question: And the solubility (mole fraction) (in acetonitrile, 303.15 K)?
Answer: 0.0139

Question: What about the solubility (mole fraction) (in ethyl acetate, 273.15 K) of the same compound?
Answer: 0.0288

Question: And the solubility (mole fraction) (in ethyl acetate, 278.15 K)?
Answer: 0.0396

Question: And the solubility (mole fraction) (in ethyl acetate, 283.15 K)?
Answer: 0.056

Question: And the solubility (mole fraction) (in ethyl acetate, 288.15 K)?
Answer: 0.0776

Question: And the solubility (mole fraction) (in ethyl acetate, 293.15 K)?
Answer: 0.108

Question: And the solubility (mole fraction) (in ethyl acetate, 298.15 K)?
Answer: 0.145

Question: And the solubility (mole fraction) (in ethyl acetate, 303.15 K)?
Answer: 0.193

Question: What about the solubility (mole fraction) (in isobutyl acetate, 273.15 K) of the same compound?
Answer: 0.0497

Question: And the solubility (mole fraction) (in isobutyl acetate, 278.15 K)?
Answer: 0.0625

Question: And the solubility (mole fraction) (in isobutyl acetate, 283.15 K)?
Answer: 0.0831

Question: And the solubility (mole fraction) (in isobutyl acetate, 288.15 K)?
Answer: 0.108

Question: And the solubility (mole fraction) (in isobutyl acetate, 293.15 K)?
Answer: 0.139

Question: What about the solubility (mole fraction) (in isobutyl acetate, 298.15 K) of the same compound?
Answer: 0.178

Question: What about the solubility (mole fraction) (in isobutyl acetate, 303.15 K) of the same compound?
Answer: 0.226

Question: And the solubility (mole fraction) (in isopropyl acetate, 273.15 K)?
Answer: 0.0408

Question: And the solubility (mole fraction) (in isopropyl acetate, 278.15 K)?
Answer: 0.0549

Question: What about the solubility (mole fraction) (in isopropyl acetate, 283.15 K) of the same compound?
Answer: 0.0736

Question: What about the solubility (mole fraction) (in isopropyl acetate, 288.15 K) of the same compound?
Answer: 0.0983

Question: What about the solubility (mole fraction) (in isopropyl acetate, 293.15 K) of the same compound?
Answer: 0.128

Question: And the solubility (mole fraction) (in isopropyl acetate, 298.15 K)?
Answer: 0.165

Question: What about the solubility (mole fraction) (in isopropyl acetate, 303.15 K) of the same compound?
Answer: 0.212

Question: What about the solubility (mole fraction) (in methyl acetate, 273.15 K) of the same compound?
Answer: 0.0224

Question: And the solubility (mole fraction) (in methyl acetate, 278.15 K)?
Answer: 0.0321

Question: What about the solubility (mole fraction) (in methyl acetate, 283.15 K) of the same compound?
Answer: 0.0448

Question: What about the solubility (mole fraction) (in methyl acetate, 288.15 K) of the same compound?
Answer: 0.0663

Question: What about the solubility (mole fraction) (in methyl acetate, 293.15 K) of the same compound?
Answer: 0.102

Question: And the solubility (mole fraction) (in methyl acetate, 298.15 K)?
Answer: 0.142

Question: What about the solubility (mole fraction) (in methyl acetate, 303.15 K) of the same compound?
Answer: 0.185

Question: What about the solubility (mole fraction) (in n-propyl acetate, 273.15 K) of the same compound?
Answer: 0.0341

Question: What about the solubility (mole fraction) (in n-propyl acetate, 278.15 K) of the same compound?
Answer: 0.046

Question: And the solubility (mole fraction) (in n-propyl acetate, 283.15 K)?
Answer: 0.063

Question: What about the solubility (mole fraction) (in n-propyl acetate, 288.15 K) of the same compound?
Answer: 0.084

Question: What about the solubility (mole fraction) (in n-propyl acetate, 293.15 K) of the same compound?
Answer: 0.113

Question: What about the solubility (mole fraction) (in n-propyl acetate, 298.15 K) of the same compound?
Answer: 0.152

Question: What about the solubility (mole fraction) (in n-propyl acetate, 303.15 K) of the same compound?
Answer: 0.2
